# Data published in patent US9163032B2, “Esters of DCPLA and methods of treatment using the same” (Blanchette Rockefeller Neurosciences Institute, priority 2011, dated 2015).
# Assays:
# [1] = system: Phosphatidylserine (C2) Binding Site; test: 3H-DCPLA-ME binding to rat brain slices with C1 and C2 competitors (film-autoradiography); details: rat brain slices
# Procedure: To determine the binding site of DCPLA-ME, ^3H-DCPLA-ME was incubated with rat brain slices in the absence and presence of known C1 and C2 competitors. More specifically, rat brain sections were fixed with formaldehyde, sliced, and incubated with (1)^3H-DCPLA-ME alone; (2)^3H-DCPLA-ME with DCPLA; (3)^3H-DCPLA-ME with Phorbol ester; or (4)^3H-DCPLA-ME and Bryostatin 1. After incubation, the slices were washed with a buffer made of 130 mM NaCl, 5 mM MgCl, 5 mM KCl, 1 mM EGTA, and 0.1% bovine serum albumin in 10 mM HEPES-NaOH, pH 7.4, dried, and analyzed with film-autoradiography.
# PKC-ε = molecular target: T1, PKC-ε (Homo sapiens, UniProt Q02156); test: PKC activation assay with purified PKC-ε isozyme (32P-phosphoprotein formation); assay type: biochemical; details: for Emax: % of control of PKCε at maximum; for Specificity ε/α: Activation of PKC-ε ÷ activation or inhibition of PKCα at 3xEC50; for EC50: lowest concentration that activates by 50% of maximum activation
# T1 sequence (Q02156 1-737): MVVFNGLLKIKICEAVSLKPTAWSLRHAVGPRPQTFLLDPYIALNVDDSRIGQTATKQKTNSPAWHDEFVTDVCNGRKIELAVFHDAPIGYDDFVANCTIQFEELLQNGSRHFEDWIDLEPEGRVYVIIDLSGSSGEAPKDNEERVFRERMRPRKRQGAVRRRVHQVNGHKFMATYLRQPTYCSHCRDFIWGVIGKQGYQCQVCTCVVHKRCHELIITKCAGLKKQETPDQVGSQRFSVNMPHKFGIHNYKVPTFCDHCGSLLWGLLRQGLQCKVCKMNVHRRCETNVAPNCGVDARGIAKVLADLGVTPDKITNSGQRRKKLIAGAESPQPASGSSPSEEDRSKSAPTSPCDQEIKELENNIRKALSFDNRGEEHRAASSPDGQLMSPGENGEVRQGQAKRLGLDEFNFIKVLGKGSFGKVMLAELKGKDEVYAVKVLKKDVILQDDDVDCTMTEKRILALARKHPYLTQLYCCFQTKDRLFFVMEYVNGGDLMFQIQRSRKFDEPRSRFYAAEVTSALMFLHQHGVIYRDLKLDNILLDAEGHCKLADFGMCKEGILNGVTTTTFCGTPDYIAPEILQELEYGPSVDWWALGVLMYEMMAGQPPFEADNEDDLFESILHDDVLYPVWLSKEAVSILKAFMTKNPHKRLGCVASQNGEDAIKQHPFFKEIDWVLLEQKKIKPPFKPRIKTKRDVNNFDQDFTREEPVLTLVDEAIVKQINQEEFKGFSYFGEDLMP
# Procedure: For measurement of PKC activation by DCPLA-ME, activation of recombinant PKC-α, PKC-ε, and PKC-δ was evaluated. DCPLA-ME induced activation was measured in the absence of diacylglycerol (DAG) and phosphatidylserine (PS) as described earlier. See Nelson, T. J. et al., J. Biol. Chem., 2009, 284: 34514-34521, and Kanno, T. et al., J. Cell Physiol., 2009, 221: 183-188. Individual enzymes were incubated for 15 min at 37° C. in the presence of 10 μM histones, 4.89 mM CaCl2, 10 mM MgCl2, 20 mM HEPES (pH 7.4), 0.8 mM EDTA, 4 mM EGTA, 4% glycerol, 8 μg/ml aprotinin, 8 μg/ml leupeptin, 2 mM benzamidine, and 0.5 μCi of [γ-^32P]ATP. Purified PKC-α, PKC-ε and PKC-δ were preincubated with DCPLA-ME for 5 min at room temperature. [^32P]-Phosphoprotein formation was measured by adsorption onto phosphocellulose.
# To measure PKC, 10 μl of cell homogenate or purified PKC isozyme was incubated for 15 min at 37° C. in the presence of 10 μM histones, 4.89 mM CaCl2, 1.2 μg/μl phosphatidyl-L-serine, 0.18 μg/μl 1,2-dioctanoyl-sn-glycerol, 10 mM MgCl2, 20 mM HEPES (pH 7.4), 0.8 mM EDTA, 4 mM EGTA, 4% glycerol, 8 μg/ml aprotinin, 8 μg/ml leupeptin, and 2 mM benzamidine. [γ32P]ATP (0.5 μCi) was added and 32P-phosphoprotein formation was measured by adsorption onto phosphocellulose as described previously. See Nelson et al., J. Neurochemistry, 1995, 65: 2350-2357.
# PKC activity of each compound was measured in the absence of diacylglycerol and phosphatidyl-L-serine and PKC-δ and PKC-ε were measured in the absence of added EGTA and CaCl2, as described by Kanno et al., J. Lipid Res., 2006, 47: 1146-1156. Low concentrations of Ca^2+ are needed because high Ca^2+ interacts with the PKC phosphatidylserine binding site and prevents activation. […] To determine their PKC isozyme specificity, the compounds were pre-incubated with purified isoforms of PKC for five minutes and the PKC activity was measured radiometrically.
# The activation and PKC isozyme specificity of DCPLA-ethyl ester was measured following the procedures in Example 1(B) and (C), except that 9 ng of the purified isozyme was used and it was pre-incubated for 5 minutes at room temperature (FIG. 3). PKC-ε activation by DCPLA-tert-butyl ester and DCPLA-retinyl ester was measured in the same manner as DCPLA-ethyl ester (FIG. 3).
# The EC50 values, PKC specificity, and activation for a select number of DCPLA esters was determined (see Table 1). EC50 values were determined by measuring the lowest concentration that activates by 50% of maximum activation. […] The specificity and activation of PKC by the various esters of DCPLA were determined from the measurements of activation of PKC isozymes.
# [2] = system: rat primary hippocampal neurons; test: Neurotoxic effect of Aβ1-42 oligomers, MTT viability assay; assay type: cell-based; details: 20 hr
# Procedure: Amylospheroids (ASPDs) and Aβ monomers were prepared following Hoshi, M., et al. (2003) Proc Natl Acad Sci USA 100, 6370-6375, and Noguchi, A., et al. (2009) J Biol Chem 284, 32895-32905. Briefly, Aβ1-42 was dissolved in 1,1,1,3,3,3-hexafluoro-2-propanol and incubated overnight at 4° C. and then 3 hr at 37° C. The dissolved Aβ1-42 was then lyophilized in 1.5 ml polypropylene centrifuge tubes at 40 nmol/tube concentration. For preparing the ASPDs, the lyophilized Aβ was dissolved in phosphate buffered saline (PBS) without Ca^2+ or Mg^2+ at less than 50 μM concentration and rotated for 14 hr at 4° C. After incubation, the Aβ solution was purified using a 100 kDa molecular mass cutoff filter (Amicon Ultra, Millipore) and the high-molecular weight fraction was saved to obtain the most toxic ASPDs. Aβ derived diffusible ligands (ADDLs) were produced as previously described. See Lambert, M. P et al., Proc. Natl. Acad. Sci. USA, 1998, 95: 6448-6453. Briefly, Aβ1-42 was solubilized at 5 mM in dimethyl sulfoxide, diluted to 100 μM in F12k medium and was incubated at 4° C. for 24 hr. The solution was centrifuged at 14000×g for 10 min at 4° C. and the supernatant was used as the ADDLs.
# Viability of cells was measured by MTT assay. MTT (i.e., 3-(4,5-dimethylthiazol-2-yl)-2,5-diphenyltetrazolium bromide) is a tetrazolium salt that is cleaved to formazan by the succinate dehydrogenase, which is only active in viable cells. After solubilization of the formazan, the amount of dye can be quantified with a microplate reader at 570 nm along with a reference of 630 nm. For the MTT assay, 5×10^4 primary rat hippocampal neurons from 18-day-old embryonic Sprague-Dawley rat brains or SH-SY5Y cells were plated on each well of 24-well plates coated with poly-D-lysine. After treatment, the cells were washed with 1× PBS and were incubated with 200 μl of 1 mg/ml MTT solution (Sigma, USA) at 37° C. for 2 hr. Then the MTT-solution was removed and the cells were lysed with 200 μl isopropanol containing 0.04 M HCl and […] for 10 min. Finally, the reading was taken at 570 nm and 630 nm. All the samples were done in triplicate and the data were represented as the percentage of control.
# To assess the neurotoxic effect of different sized oligomers, rat primary hippocampal neurons were treated with variable concentrations of these Aβ1-42 species for 20 hr. Viability of the treated cells was compared to untreated cells using the MTT assay described above.
Emax (PKC-ε) [%],Specificity ε/α (PKC-ε),EC50 (PKC-ε) [nM],Molecule,further results
300,7.4,1000,"CCCCCC1CC1CC1CC1CCCCCCCC(=O)O (stereo not shown) [DCPLA, 8-[2-(2-pentylcyclopropylmethyl)-cyclopropyl]-octanoic acid]","3H-DCPLA-ME binding, 30 nM competitor [1]: 86%; 3H-DCPLA-ME binding, 1 μM competitor [1]: 35%"
140,8.1,3,CCCCCCCCC1CC1CCCCCCCCOC(=O)CCCCCCCC1CC1CC1CC1CCCCC (stereo not shown) [DCPLA-cyclopropanated oleyl ester],"concentration of maximal activation (PKC-ε; FIG. 2, FIG. 4): 10 nM; PKC isozyme specificity (PKC-ε; PKC-ε vs PKC-α and PKC-δ): relatively specific for PKC-ε; PKC-ε activation at its peak (PKC-ε; maximum, FIG. 1, 2, 4): 140 % of control"
126,4.2,3,CCCCCC1CC1CC1CC1CCCCCCCC(=O)OCC (stereo not shown) [DCPLA-ethyl ester],–
129,–,10,CCCCCC1CC1CC1CC1CCCCCCCC(=O)OC/C=C(C)/C=C/C=C(C)/C=C/C1=C(C)CCCC1(C)C (stereo not shown) [DCPLA-retinyl ester],–
130,–,1,"CCCCCC1CC1CC1CC1CCCCCCCC(=O)OC(C)(C)C (stereo not shown) [DCPLA-t-butyl ester, DCPLA-tert-butyl ester]",form of activity vs. concentration response (PKC-ε): bimodal activation
–,–,–,CCCC(=O)O[C@@H]1[C@@H](C)[C@@]2(O)[C@@H](C=C(CO)C[C@]3(O)C(=O)C(C)=C[C@@H]23)[C@@H]2C(C)(C)[C@]12OC(=O)CCC [Phorbol ester (PdBu)],"3H-DCPLA-ME binding, 30 nM competitor [1]: 100%; 3H-DCPLA-ME binding, 1 μM competitor [1]: 81%"
–,–,–,"oAβ < 100 kDa: filtrate from the 100 kDa filtration of ASPD preparation, 12 monomers on average","Viability of primary neuron ([2]; 50 nM): 76.41 ± 5.54 % of control; Viability of primary neuron ([2]; 50 nM, listed as OAβ<100 kDa filtrate): significantly cytotoxic; Viability of primary neuron ([2]; 500 nM): 62.94 ± 9.53 % of control; Viability of primary neuron ([2]; 1000 nM (1 μM)): 53.52 ± 2.43 % of control"
